From patent publication US20190330197A1, “SUBSTITUTED NAPHTHALENE DIIMIDES AND THEIR USE” (UCL Business PLC, priority 2015, published 2019)

Columns and labels:
A549 (lung cancer) cells = assay: SRB growth inhibition, A549; format: cell-based, human; conditions: 96 hr, SRB assay; read-out: short-term 96 hr IC50 A549
Experimental: (§1) Human cancer cell lines and the somatic human cell line WI-38 (lung fibroblast) were purchased from the American Type Culture Collection. Cell lines were maintained in appropriate medium supplemented with 10% foetal bovine serum (Invitrogen, UK), 2 mM L-glutamine (Invitrogen, Netherlands), and other components as specified by the suppliers. Cell lines were maintained at 37° C., 5% CO2 and routinely passaged. Drugs were dissolved in DMSO and filtered through 0.22 μm pore-size filter units before addition to cell line appropriate media. Cellular growth inhibition was measured using the sulforhodamine B (SRB) assay in 96 well plates. Fifty percent inhibitory concentrations (IC50) were determined by taking the mean absorbance at 540 nm for each drug concentration expressed as a percentage of the absorbance of untreated control wells.

MCF7 (breast) cells = assay: SRB growth inhibition, MCF7; format: cell-based, human; conditions: 96 hr, SRB assay; read-out: short-term 96 hr IC50 MCF7
Experimental: as §1

[1] = system: Panc1 (pancreatic cancer) cells; assay: SRB growth inhibition, Panc1; format: cell-based, human; conditions: 96 hr, SRB assay; read-out: short-term 96 hr IC50 Panc1
Experimental: as §1

[2] = system: ALT (Alternative Lengthening of Telomeres) cell line; assay: SRB growth inhibition, ALT; format: cell-based, human; conditions: 96 hr, SRB assay; read-out: short-term 96 hr IC50 ALT
Experimental: as §1

MIA-PaCa2 cells = assay: RNA-seq gene expression changes in treated MIA-PaCa2 cells; format: cell-based, human
Experimental: Cell lines were purchased from American Type Culture Collection (ATCC) and stored under liquid nitrogen. Cells were maintained in monolayer culture T75 (75 cm2 flasks) in humidified 5% CO2 atmosphere at 37° C. Cells were maintained in appropriate medium according to (ATCC) with necessary supplements including L-glutamine (Thermo Fisher Scientific Cat. No. 25030024), penicillin-streptomycin solution Hybrid-Max (Sigma Cat. No. P7539) and fetal bovine serum (FBS, Thermo Fisher Scientific Cat. No. 10270106). Cells were passaged at 80-90% confluence.
MIA-PaCa2 cells were seeded 48 hours prior to incubation, in MatTek 35 mm glass bottom dishes. Three incubation times for the compound 4c were examined: 0, 6 and 24 hrs. For RNA extraction cells (a maximum of 1×10^7 cells) were harvested by trypsinization following rinsing the cells twice in 1×PBS (without calcium chloride and magnesium chloride, purchased from Sigma Cat. No. D1408). After neutralising the medium with an equal volume of medium to trypsin cells were transferred to a sterile centrifuge tube for centrifugation for 4 minutes at 400 rpm at room temperate in order to pellet the cells. After removing the medium and trypsin following centrifugation RNA was extracted from the pellet of cells using the RNeasy Mini Kit by QIAGEN (Cat. no. 74104). RNA quality was checked by use of the NanoDrop 2000 Spectrophotometer, and a minimum quantity of ca 500 ng of RNA at >25 ng/μl concentration per replicate was verified.
RNA-Seq sequencing studies were performed by the UCL Genomics Facility using an Illumina NextSeq 500 instrument, and data obtained on RNA expression levels of all individual genes in the genomes of the cells analysed, relative to the control cells at 0 hr exposure. Four replicates were used for each time-point, thus a total of 12 individual genomes were analysed and statistics obtained for each time-point.
Data has been taken from RNA-seq data from treated MIA-PaCa2 cells, showing log-fold expression changes for genes selected from those showing the most significant down-regulation of expression as measured by RNA levels.

[3] = system: Kras21 sequence from the promoter region of the kras gene; assay: FRET quadruplex stabilisation assay, Kras21; format: binding; conditions: compound at 1 μM, 60 mM potassium cacodylate buffer pH 7.4
Text: (§2) The ability of the naphthalene diimide compounds to stabilize quadruplex DNA sequences was investigated using a fluorescence resonance energy transfer (FRET) assay modified to be used as a high-throughput screen in a 96-well format. Several quadruplex sequences were studied (including the human telomeric G-quadruplex DNA sequence 5′-FAM-d(GGG[TTAGGG]3)-TAMRA-3′ and the duplex sequence 5′-FAM-d[…]-HEG-[…]-TAMRA-3′ (HEG linker: [(—CH2—CH2—O—)6.
(§3) The labelled oligonucleotides have attached to them the donor fluorophore FAM: 6-carboxyfluorescein and the acceptor fluorophore TAMRA: 6-carboxytetramethylrhodamine. The FRET probe sequences were diluted from stock to the correct concentration (400 nM) in a 60 mM potassium cacodylate buffer (pH 7.4) and then annealed by heating to 85° C. for 10 min, followed by cooling to room temperature in the heating block. The compound was stored as a 10 mM stock solution in DMSO; final solutions (at 2× concentration) were prepared using 10 mM HCl in the initial 1:10 dilution, after which 60 mM potassium cacodylate buffer (pH 7.4) was used in all subsequent steps. The maximum HCl concentration in the reaction volume (at a ligand concentration of 20 μM) is thus 200 μM, well within the range of the buffer used. Relevant controls were also performed to check for interference with the assay. 96-Well plates (MJ Research, Waltham, Mass.) were prepared by aliquoting 50 μl of the annealed DNA into each well, followed by 50 μl of the compound solutions. Measurements were made on a DNA Engine Opticon (MJ Research) with excitation at 450-495 nm and detection at 515-545 nm. Fluorescence readings were taken at intervals of 0.5° C. in the range 30-100° C., with a constant temperature being maintained for 30 s prior to each reading to ensure a stable value. Final analysis of the data was carried out using a script written in the program Origin 7.0 (OriginLab Corp., Northampton, Mass.). The advanced curve-fitting function in Origin 7.0 was used for calculation of ΔTm values. All determinations were performed in triplicate or better. Esds in ΔTm are ±0.1° C.

[4] = system: Mia-PaCa2 (pancreatic cancer) cells; assay: SRB growth inhibition, MiaPaCa2; format: cell-based, human; conditions: 96 hr, SRB assay; read-out: short-term 96 hr IC50 MiaPaCa2
Experimental: as §1

[5] = system: human telomeric (F21T) G-quadruplex DNA; assay: FRET quadruplex stabilisation assay, F21T; format: binding; conditions: compound at 1 μM, 60 mM potassium cacodylate buffer pH 7.4
Text: as §2, §3

SMILES: O=C1c2ccc3c4c(c(NCCN5CCCC5)cc(c24)C(=O)N1CCCN1CCOCC1)C(=O)N(CCCN1CCOCC1)C3=O [Compound 4c, 2,7-bis(3-morpholinopropyl)-4-((2-(pyrrolidin-1-yl)ethyl)amino)benzo[Imn][3,8]phenanthroline-1,3,6,8(2H,7H)-tetraone]
- IC50 (A549 (lung cancer) cells): 24 nM
- IC50 (MCF7 (breast) cells): 159 nM
- IC50 [1]: 22 nM
- IC50 [2]: 93 nM
- AVIL log-fold change relative to t = 0 hrs (MIA-PaCa2 cells; 4c at 6 hrs): 3.0
- CBFA2T3 log-fold change relative to t = 0 hrs (MIA-PaCa2 cells; 4c at 6 hrs): −2.8
- FLG log-fold change relative to t = 0 hrs (MIA-PaCa2 cells; 4c at 6 hrs): 4.0
- ITGA1 log-fold change relative to t = 0 hrs (MIA-PaCa2 cells; 4c at 6 hrs): 4.5
- ITGAM log-fold change relative to t = 0 hrs (MIA-PaCa2 cells; 4c at 6 hrs): 7.0
- PRDM16 log-fold change relative to t = 0 hrs (MIA-PaCa2 cells; 4c at 6 hrs): −2.8
- SHANK2 log-fold change relative to t = 0 hrs (MIA-PaCa2 cells; 4c at 6 hrs): −1.9
- ST14 log-fold change relative to t = 0 hrs (MIA-PaCa2 cells; 4c at 6 hrs): 5.6
- TP73 log-fold change relative to t = 0 hrs (MIA-PaCa2 cells; 4c at 6 hrs): −2.4
- TREX1 log-fold change relative to t = 0 hrs (MIA-PaCa2 cells; 4c at 6 hrs): −8.3
- ZNF469 log-fold change relative to t = 0 hrs (MIA-PaCa2 cells; 4c at 6 hrs): −3.4
- AVIL log-fold change relative to t = 0 hrs (MIA-PaCa2 cells; 4c at 24 hrs): 0.5
- CBFA2T3 log-fold change relative to t = 0 hrs (MIA-PaCa2 cells; 4c at 24 hrs): −2.8
- FLG log-fold change relative to t = 0 hrs (MIA-PaCa2 cells; 4c at 24 hrs): 0.7
- ITGA1 log-fold change relative to t = 0 hrs (MIA-PaCa2 cells; 4c at 24 hrs): 0.4
- ITGAM log-fold change relative to t = 0 hrs (MIA-PaCa2 cells; 4c at 24 hrs): 2.6
- PRDM16 log-fold change relative to t = 0 hrs (MIA-PaCa2 cells; 4c at 24 hrs): −3.5
- SHANK2 log-fold change relative to t = 0 hrs (MIA-PaCa2 cells; 4c at 24 hrs): −2.0
- ST14 log-fold change relative to t = 0 hrs (MIA-PaCa2 cells; 4c at 24 hrs): 2.5
- TP73 log-fold change relative to t = 0 hrs (MIA-PaCa2 cells; 4c at 24 hrs): −1.2
- TREX1 log-fold change relative to t = 0 hrs (MIA-PaCa2 cells; 4c at 24 hrs): −2.5
- ZNF469 log-fold change relative to t = 0 hrs (MIA-PaCa2 cells; 4c at 24 hrs): −3.2
- extent of gene expression changes (MIA-PaCa2 cells; treated MIA-PaCa2 cells): changes in gene expression in a comparatively small number of genes
- ΔTm Kras21 [3]: 11.0 °C
- IC50 [4]: 12 nM
- ΔTm F21T [5]: 11.8 °C
